Six molecules from paper PMC10974317, “Anti-COVID Drugs (MMV COVID Box) as Leishmanicidal Agents: Unveiling New Therapeutic Horizons” (Pharmaceuticals, 2024) can be followed below.

Where two headings read alike, the source gives them in different places.

Assay [1] concerns Leishmania donovani promastigotes. Description: Leishmanicidal activity against promastigotes (alamarBlue assay). Format: cell-based. The settings on record: 72 h; for IC50: Leishmania donovani, read-out: inhibitory concentration 50 (IC50), promastigote stage, L. donovani. As to the method: (§1) Initial screening of the 160 compounds against Leishmania promastigotes was performed at 10 μM following MMV foundation instructions provided with the box. The compound activity was assessed using the modified alamarBlue® assay (Invitrogen/Life Technologies, Madrid, Spain) with 10^6 promastigotes per well. DMSO concentration never surpassed 0.1% (v/v) to avoid impacting parasite proliferation or morphology. Subsequently, an EnSpire multimode plate reader (PerkinElmer, MA, USA) was used to measure fluorescence after 72 h. […] Serial dilutions were made in 96-well plates and incubated with parasites for 72 h after adding alamarBlue®. IC50 values were calculated using SigmaPlot 14.0 (Systat Software Inc., Chicago, IL, USA) based on fluorescence measurements. Each concentration was tested in duplicate across three independent experiments.

For assay [2], the system named is Leishmania amazonensis promastigotes. The assay is described as above. The assay is classed as cell-based. The settings on record: 72 h, mean ± SD, read-out: inhibitory concentration 50 (IC50), promastigote stage, L. amazonensis. On the procedure:
as §1

For assay [3], the system named is L. amazonensis intracellular amastigotes. Put plainly: Intracellular amastigote activity (parasite rescue and transformation assay). Conditions: for Selectivity index (CC50/IC50): CC50 murine macrophages / IC50 L. amazonensis amastigotes. Format: cell-based, Leishmania amazonensis. As to the method:
Intracellular amastigote activity against L. amazonensis was measured through a parasite rescue and transformation assay for the purchased compounds. Macrophages were seeded in a 96-well plate and infected with promastigotes at the metacyclic stage for subsequent compound treatment. After incubation, macrophages were lysed, and the medium and conditions were changed to stimulate amastigote transformation. The results were assessed using alamarBlue® [28].

Assay [4] has as its system Leishmania amazonensis promastigotes. Description: Mitochondrial membrane potential disruption (JC-1). The assay is classed as cell-based. Conditions: 24 h with IC90, vs negative control. On the procedure:
JC-1 Mitochondrial Membrane Potential kit (Cayman Chemical, Ann Arbor, MI, USA) was employed following the manufacturer’s instructions. […] Three independent experiments were conducted for this assay.

[5] abbreviates: promastigotes, alamarBlue, mean ± SD, w/a: without activity.
Where [6] appears, read: Leishmania amazonensis, Macrophage, in Mus musculus, intracellular amastigotes in murine macrophages, read-out: IC50, amastigote stage, L. amazonensis.

With `C[C@@H]1CCCN1CCc1cc2cc(-c3ccc(C#N)cc3)ccc2o1` [ABT239], the IC50 in assay [1] (setting [5]) was 1680 ± 250 nM; in assay [2], 1310 ± 70 nM; in assay [2] (Leishmania amazonensis), < 1400 nM; in assay [3] (setting [6]), 490 ± 130 nM. Further, in assay [3], the “Selectivity index (CC50/IC50)” value is 46.

In the case of `C=CCNc1nc(NCC=C)nc(N2CCN(C(c3ccc(F)cc3)c3ccc(F)cc3)CC2)n1` [Almitrine], the “inhibitory concentration 50 (IC50), promastigote stage, L. donovani” value in assay [1] (setting [5]) was “w/a at 100”. Moreover, the IC50 in assay [2] was 1190 ± 20 nM; in assay [2] (Leishmania amazonensis), < 1400 nM; in assay [3] (setting [6]), < 2400 nM; in assay [3] (read-out: IC50, amastigote stage, L. amazonensis, intracellular amastigotes in murine macrophages) it was 2180 ± 470 nM. In addition, the “change in mitochondrial membrane potential (ΔΨm)” value (“change … (ΔΨm)” for short) in assay [4] is reported as “significant decrease”.

With `CC(C)C[C@H](NC(=O)[C@H](Cc1ccccc1)NC(=O)c1cnccn1)B(O)O` [Bortezomib], the IC50 in assay [1] (setting [5]) amounted to 37200 ± 2510 nM; in assay [2] (Leishmania amazonensis), 420 ± 80 nM; in assay [3] (Leishmania amazonensis, Macrophage, in Mus musculus, read-out: IC50, amastigote stage, L. amazonensis, intracellular amastigotes in murine macrophages), 40 ± 10 nM. Also, the “change … (ΔΨm)” value in assay [4] is “significant decrease”.

Take `CO[C@@H]1[C@H](N(C)C(=O)c2ccccc2)C[C@H]2O[C@]1(C)n1c3ccccc3c3c4c(c5c6ccccc6n2c5c31)C(=O)NC4` [Midostaurin]: the “activity against the amastigote form” value in assay [3] (at 10 μM) is reported as “no activity”.

As for `CCCCCCCCCCCCCCCCOP(=O)([O-])OCC[N+](C)(C)C` [Miltefosine], the IC50 in assay [1] is 72200 ± 3060 nM. In assay [3], the “Selectivity index (CC50/IC50)” value amounted to 23.

On to `CC(C)N1CCN(c2ccc(OCC3COC(Cn4cncn4)(c4ccc(Cl)cc4Cl)O3)cc2)CC1` (stereo not drawn) [Terconazole], for which the IC50 is 11600 ± 1380 nM in assay [1] (setting [5]); 3820 ± 1040 nM in assay [2] (Leishmania amazonensis); < 2400 nM in assay [3] (setting [6]); 2380 ± 400 nM in assay [3] (intracellular amastigotes in murine macrophages, read-out: IC50, amastigote stage, L. amazonensis). The “Selectivity index (CC50/IC50)” value in assay [3] stood at 19. The “change … (ΔΨm)” value in assay [4] is given as “significant decrease”.
